Test results reported in patent US10780081B2, “Method of treating multiple sclerosis employing a LSD1-inhibitor” (ORYZON GENOMICS, S.A., priority 2016, dated 2020).

What was measured:
[1] = tested on: demyelination and inflammatory cell infiltration in spinal cord; test: Histopathological analysis of spinal cord in EAE mice (Kluver-Barrera); format: in vivo, C57BL/6 mice; details: 0.5 mg/kg p.o., day 26 postimmunization
Procedure: (§1) Mice were scored daily for signs of EAE, using the scores described in Example 3.1. Animals were sacrificed on day 26 postimmunization and samples were collected and processed as described below. n=10 mice/group.
(§2) Tissue collection and cell isolation. On day 26 postimmunization, spleen, draining lymph nodes (DLNs: cervicals, inguinals and axillaries), and spinal cord were removed. Spinal segments of the cervical and lumbar regions were prepared separately and processed for protein extraction, and histopathological analysis. Single-cell suspensions were obtained from spleen or pooled lymph nodes, the samples were homogenized and total number of cells was quantified using Neubauer chamber.
Processing of samples for histopathological analysis. Cervical and lumbar spinal cord segments were divided and processed for inclusion and sectioning in paraffin. Spinal cord segments were immediately fixed with buffered 10% formalin for 48h, dehydrated and included in paraffin using standard techniques. Transversal sections (4-μm thickness) were stained with Luxol fast blue, cresyl violet, and hematoxylin following the Klüver-Barrera technique and were analyzed for the presence of areas of demyelination and cell infiltration using a light microscope (Leica, DM2000).

Human recombinant MAO-A = target: T1, Human recombinant MAO-A (Homo sapiens, UniProt P21397); test: MAO-A kynuramine fluorescence assay; format: biochemical
T1 construct: purchased Sigma Aldrich
T1 sequence (P21397 1-527): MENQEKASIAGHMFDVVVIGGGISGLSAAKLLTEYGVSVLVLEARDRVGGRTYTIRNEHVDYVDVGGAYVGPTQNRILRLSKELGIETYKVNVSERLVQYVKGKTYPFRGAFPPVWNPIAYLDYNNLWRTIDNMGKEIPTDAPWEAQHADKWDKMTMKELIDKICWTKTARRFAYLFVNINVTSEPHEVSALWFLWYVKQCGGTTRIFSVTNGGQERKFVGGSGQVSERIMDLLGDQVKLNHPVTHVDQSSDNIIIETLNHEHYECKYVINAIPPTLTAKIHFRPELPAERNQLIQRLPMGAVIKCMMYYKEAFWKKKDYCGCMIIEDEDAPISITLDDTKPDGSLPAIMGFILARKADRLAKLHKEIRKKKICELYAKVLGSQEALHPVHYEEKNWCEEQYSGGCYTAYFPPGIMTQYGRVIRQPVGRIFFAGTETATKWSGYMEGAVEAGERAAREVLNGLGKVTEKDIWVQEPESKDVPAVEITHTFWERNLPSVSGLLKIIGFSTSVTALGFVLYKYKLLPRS
Source text: Human recombinant monoamine oxidase proteins MAO-A and MAO-B were purchased from Sigma Aldrich. MAOs catalyze the oxidative deamination of primary, secondary and tertiary amines. In order to monitor MAO enzymatic activities and/or their inhibition rate by inhibitor(s) of interest, a fluorescence-based (inhibitor)-screening assay was set up. 3-(2-Aminophenyl)-3-oxopropanamine (kynuramine dihydrobromide, Sigma Aldrich), a non fluorescent compound was chosen as a substrate. Kynuramine is a non-specific substrate for both MAO-A and MAO-B activities. While undergoing oxidative deamination by MAO activities, kynuramine is converted into 4-hydroxyquinoline (4-HQ), a resulting fluorescent product.
The monoamine oxidase activity was estimated by measuring the conversion of kynuramine into 4-hydroxyquinoline. […]
After leaving the enzyme(s) interacting with the inhibitor, KM of kynuramine was added to each reaction for MAO-B and MAO-A assay respectively, and the reaction was left for 1 hour at 37° C. in the dark. […] The conversion of kynuramine to 4-hydroxyquinoline, was monitored by fluorescence (excitation at 320 nm, emission at 360 nm) using a microplate reader (Infinite 200, Tecan). Arbitrary units were used to measure levels of fluorescence produced in the absence and/or in the presence of inhibitor.
The IC50 values of each inhibitor were calculated with GraphPad Prism Software.

[2] = tested on: IL-4, IL-6, IL-1beta, IP-10, MCP-1 in spinal cord; test: Cytokine/chemokine levels in spinal cord of EAE mice by ELISA; format: in vivo, C57BL/6 mice; details: 0.5 mg/kg p.o., day 26, vs vehicle
Procedure: as §1
Protein extraction and cytokine/chemokine analysis. Proteins were extracted from cervical and lumbar segments of spinal cord by homogenization (50 mg tissue/[…]) in lysis buffer (50 mM Tris-HCl, pH 7.4, 0.5 mM DTT, and 10 μg/ml proteinase inhibitors PMSF, pepstatin, and leupeptin). Samples were centrifuged (20.000×g, 15 min, 4° C.) and the supernatants were assayed for protein concentration (using Bradford method) and for cytokine/chemokine contents by using specific sandwich ELISAs for IL-4, IL-6, IL-1beta, IP-10 and MCP-1, according to manufacturer's recommendations, using the following antibodies and recombinant proteins:
(§3) Statistical Analysis: Cell number analysis in lymph nodes and spleen: statistical differences are indicated as ***p<0.001 vs vehicle using ANOVA test. Cytokine/chemokine level analysis: statistical differences are indicated as: *p<0.05, **p<0.005, using Mann-Whitney test; unpaired t-test was used for IP-10 level analysis.

[3] = tested on: Experimental Autoimmune Encephalomyelitis (EAE); test: Experimental autoimmune encephalomyelitis (EAE) model, MOG35-55, daily clinical score; format: in vivo, C57BL/6 mice
Procedure: To induce chronic EAE by active immunization, C57BL/6 mice were immunized s.c. with 100 μg of myelin oligodendrocyte glycoprotein MOG35-55 emulsified in complete Freund's adjuvant (CFA) containing 4 mg/ml Mycobacterium tuberculosis H37 RA. Mice also received i.p. injections of 200 ng of pertussis toxin on days 0 and 2.
Mice were scored daily for signs of EAE according to the following clinical scoring system: 0, no clinical signs; 0.5, partial loss of tail tonicity; 1, complete loss of tail tonicity; 2, flaccid tail and abnormal gait; 3, hind leg paralysis; 4, hind leg paralysis with hind body paresis; 5, hind and fore leg paralysis; and 6, death.
Control mice were orally treated with vehicle [2% v/v Tween-80+98% HPβCD (13% w/v)] following the same regime of administration. Mice were scored daily for signs of EAE according to clinical scoring system described in Example 3.1. n=10 mice/group. […]. […] Mice were scored daily for signs of EAE, using the scores described in Example 3.1. Animals were sacrificed on day 26 postimmunization and samples were collected and processed as described below. n=10 mice/group.

[4] = tested on: immune cells in spleen and lymph nodes; test: Number of immune cells in spleen and lymph nodes of EAE mice; format: in vivo, C57BL/6 mice; details: 0.5 mg/kg p.o., day 26 postimmunization, vs vehicle
Procedure: as §1, §2, §3

[5] = Tolerability at therapeutic doses; format: in vivo
Human recombinant LSD1 = target: T2, Human recombinant LSD1 (Homo sapiens, UniProt O60341); test: LSD1 in vitro biochemical assay (Amplex Red, di-methylated H3-K4 peptide); details: read-out: IC50 against LSD1
T2 construct: amino acids 158-end with N-terminal GST tag; GST (N); purchased BPS Bioscience Inc 50100
Source text: In order to monitor LSD1 enzymatic activity and/or its inhibition rate by a test compound, di-methylated H3-K4 peptide (Anaspec) was chosen as a substrate. The demethylase activity was estimated, under aerobic conditions, by measuring the release of H2O2 produced during the catalytic process, using the Amplex® Red hydrogen peroxide/peroxidase assay kit (Invitrogen).
Tranylcypromine (Biomol International) was used as a control for inhibition. Within the experiment, each concentration of inhibitor was tested in duplicate. After leaving the enzyme interacting with the inhibitor, KM of di-methylated H3-K4 peptide was added to each reaction and the experiment was left for 30 minutes at 37° C. in the dark. The enzymatic reactions were set up in a 50 mM sodium phosphate, pH 7.4 buffer. […] The conversion of the Amplex® Red reagent to resorufin due to the presence of H2O2 in the assay, was monitored by fluorescence (excitation at 540 nm, emission at 590 nm) using a microplate reader (Infinite 200, Tecan). […] The maximum demethylase activity of LSD1 was obtained in the absence of inhibitor and corrected for background fluorescence in the absence of LSD1. The IC50 value of each inhibitor was calculated with GraphPad Prism Software.

Structure (SMILES) | Inflammatory cell infiltration and demyelination areas in cervical and lumbar spinal cord [1] | Mean number of demyelination plaques in cervical and lumbar spinal cord [1] | IC50 (Human recombinant MAO-A) [nM] | IL-1 beta level in spinal cord [2] | IL-4 level in spinal cord [2] | IL-6 level in spinal cord [2] | IP-10 level in spinal cord [2] | MCP-1 level in spinal cord [2] | Development of EAE, disease incidence and severity by daily clinical score ([3]; 0.5 mg/kg p.o., Example 4) | Development of EAE, disease incidence and severity by daily clinical score ([3]; 1 or 3 mg/kg p.o., days 12-16 and 19-23 postimmunization) | Mice displaying mild symptoms ([3]; 1 or 3 mg/kg p.o., therapeutic regime) | Mice almost completely recovered ([3]; 1 or 3 mg/kg p.o., 40 days after disease onset) [%] | Dose at which clinical score in EAE is reduced (as low as) ([3]; p.o., tested at 1, 0.5 and 0.05 mg/kg) [mg/kg] | Number of immune cells retained in spleen and lymph nodes [4] | Tolerability on long-term treatment ([5]; 0.5 mg/kg p.o., mice) | Effects on hematology or circulating lymphocyte counts, gastro-intestinal toxicity ([5]; at therapeutically effective doses, no method or species printed) | IC50 (Human recombinant LSD1) [nM] | Effect on EAE clinical score ([3]; 0.06 and 0.180 mg/kg p.o., same scheme as Example 3.1)
Nc1nnc(CN[C@@H]2C[C@H]2c2ccc(OCc3ccccc3)cc2)o1 (single isomer, unassigned) [Compound 1, (−) 5-((((trans)-2-(4-(benzyloxy)phenyl)cyclopropyl)amino)methyl)-1,3,4-oxadiazol-2-amine] | no inflammatory cell infiltration nor demyelination areas were observed | absent or greatly reduced demyelination | 5300 | reduced | significantly increased | reduced | significantly reduced | significantly reduced | greatly inhibited the development of EAE | greatly inhibited the development of EAE | 40-70% | 30 | ≤ 0.05 | significant increase | well-tolerated | do not produce clinically relevant effects on hematology or circulating lymphocyte counts | 90 | 
Fc1ccccc1[C@@H]1C[C@H]1NC1CCNCC1 [ORY-LSD1, N-((1R,2S)-2-(2-fluorophenyl)cyclopropyl)piperidin-4-amine, reference compound] |  |  |  |  |  |  |  |  |  |  |  |  |  |  |  |  |  | clear tendency for improvement
